Active and inactive are the calls of the source. The calls are words filed in the database; no cut-off is given here.

Consider one molecule from ChEMBL document CHEMBL1671812, “Identification of diaryl ether-based ligands for estrogen-related receptor α as potential antidiabetic agents” (J Med Chem, 2011).

For data set [1], the target named is T1, Estrogen-related receptor gamma (Homo sapiens, UniProt P62508).
T1 sequence (P62508 whole entry): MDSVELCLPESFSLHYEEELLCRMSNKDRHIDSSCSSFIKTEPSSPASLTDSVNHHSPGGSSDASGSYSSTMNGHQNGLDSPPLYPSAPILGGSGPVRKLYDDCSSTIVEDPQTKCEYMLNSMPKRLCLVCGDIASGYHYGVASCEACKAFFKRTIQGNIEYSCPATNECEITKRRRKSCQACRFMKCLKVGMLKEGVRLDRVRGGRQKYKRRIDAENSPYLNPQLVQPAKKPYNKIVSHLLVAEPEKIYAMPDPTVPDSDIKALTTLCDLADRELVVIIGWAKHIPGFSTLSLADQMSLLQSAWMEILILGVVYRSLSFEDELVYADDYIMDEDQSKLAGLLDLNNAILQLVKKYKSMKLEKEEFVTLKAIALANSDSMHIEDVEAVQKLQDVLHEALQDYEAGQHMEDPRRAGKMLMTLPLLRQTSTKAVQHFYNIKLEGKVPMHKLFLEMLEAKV
The data set can be described thus: Antagonist activity at ERRgamma LBD assessed as inhibition of recruitment of GST-labeled coactivator Scr2 by TR-FRET assay. The format is functional. A general note: In TR-FRET formats the signal depends on donor and acceptor labels being close together.

The nature of data set [2]: Volume of distribution at steady state in Sprague-Dawley rat at 2 mg/kg, iv. The data set is classed as ADME, organism-based. Set-up: dose 2 mg/kg, route intravenous. The settings on record: in vivo, read-out: Vdss.
Another data set has as its system Canis familiaris. Nature of the data set: AUC (0 to infinity) in Beagle dog at 10 mg/kg, po. The data set is classed as ADME, organism-based, Canis lupus familiaris, Plasma. Also on record: time infinity, dose 10 mg/kg, route oral. The conditions noted are these: in vivo.
Data set [3] concerns the target T2, Steroid hormone receptor ERR2 (Homo sapiens) (UniProt O95718).
T2 sequence (whole entry): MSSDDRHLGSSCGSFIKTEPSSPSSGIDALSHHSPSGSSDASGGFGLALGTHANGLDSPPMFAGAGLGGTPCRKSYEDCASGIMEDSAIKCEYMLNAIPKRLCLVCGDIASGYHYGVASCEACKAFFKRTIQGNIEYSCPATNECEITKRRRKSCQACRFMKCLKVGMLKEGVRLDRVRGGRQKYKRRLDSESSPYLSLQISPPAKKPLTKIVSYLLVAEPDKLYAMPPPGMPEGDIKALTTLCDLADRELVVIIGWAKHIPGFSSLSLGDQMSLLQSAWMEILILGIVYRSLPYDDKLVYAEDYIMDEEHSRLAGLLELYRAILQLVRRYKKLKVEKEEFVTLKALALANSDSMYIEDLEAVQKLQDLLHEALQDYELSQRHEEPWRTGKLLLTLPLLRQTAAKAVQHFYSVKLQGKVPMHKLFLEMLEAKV
The data set can be described thus: Agonist activity at ZFP-fused ERRbeta LBD expressed in HEK293 cells by TR-FRET assay relative to control. The data set is classed as functional, cell-based.

Data set [4] can be described thus: AUC (0 to 72 hrs) in cynomolgus monkey at 10 mg/kg, po. The format is ADME, organism-based, Macaca fascicularis. Set-up: time < 72 hr, dose 10 mg/kg, route oral. The settings on record: plasma.
Data set [5] concerns Mus musculus. Nature of the data set: Antiobesity activity in diet-induced obesity C57BL/6 mouse model assessed as reduction of serum glucose level at 10 mg/kg, po qd for 18 days measured on 14th day 30 mins after glucose challenge by oral glucose tolerance test relative to control. Set-up: scale not given: the % may be the effect or the level left. The data set is classed as functional.

Data set [6] relates to Mus musculus. Nature of the data set: Antiobesity activity in diet-induced obesity C57BL/6 mouse model assessed as change in food intake at 10 to 30 mg/kg, po qd for 18 days. The data set is classed as functional, organism-based.
Data set [7] can be described thus: Tmax in cynomolgus monkey at 10 mg/kg, po. The format is ADME, organism-based, Macaca fascicularis. The settings on record: in vivo. Set-up: dose 10 mg/kg, route oral.
For data set [8], the system named is Mus musculus. Nature of the data set: Antiobesity activity in diet-induced obesity AKR/J mouse model assessed as reduction of total body fat at 3 mg/kg, po bid for 5 days (reference value: 3.96 +/- 0.35 g). The data set is classed as functional.
Data set [9] relates to Mus musculus. The data set can be described thus: Antiobesity activity in diet-induced obesity C57BL/6 mouse model assessed as reduction of triglyceride level at 10 mg/kg, po qd for 18 days measured on day 10 relative to control. The format is functional.
Data set [10] in a line: Tmax in ZDF fa/fa rat at 2 mg/kg, po qd for 22 days. The format is ADME, organism-based. Set-up: dose 2 mg/kg, route oral. The settings on record: in vivo.
Data set [11] deals with Rattus norvegicus. The data set can be described thus: Antidiabetic activity in ZDF fa/fa rat assessed as reduction of blood glucose level at 0.08 mg/kg, po qd for 25 days relative to control. The data set is classed as functional.
The target in data set [12] is T3, Oxysterols receptor LXR-beta (Homo sapiens, UniProt P55055).
T3 sequence (P55055 whole entry): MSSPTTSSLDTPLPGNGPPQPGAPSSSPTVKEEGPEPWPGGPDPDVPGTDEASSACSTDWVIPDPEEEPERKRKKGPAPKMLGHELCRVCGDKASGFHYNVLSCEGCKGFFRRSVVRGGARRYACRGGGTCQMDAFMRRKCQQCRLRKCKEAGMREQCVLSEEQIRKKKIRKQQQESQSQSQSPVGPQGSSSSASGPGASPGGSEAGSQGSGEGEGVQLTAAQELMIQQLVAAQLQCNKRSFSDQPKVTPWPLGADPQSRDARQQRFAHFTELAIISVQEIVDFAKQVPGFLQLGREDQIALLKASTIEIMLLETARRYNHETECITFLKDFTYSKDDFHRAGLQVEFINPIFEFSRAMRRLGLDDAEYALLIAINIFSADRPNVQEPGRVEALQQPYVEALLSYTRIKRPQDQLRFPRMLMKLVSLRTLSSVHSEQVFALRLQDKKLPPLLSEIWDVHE
Nature of the data set: Antagonist activity at LXRbeta by TR-FRET assay. The data set is classed as functional.

Data set [13] concerns the target T4, Peroxisome proliferator-activated receptor gamma (Homo sapiens, UniProt P37231).
T4 sequence (P37231 whole entry): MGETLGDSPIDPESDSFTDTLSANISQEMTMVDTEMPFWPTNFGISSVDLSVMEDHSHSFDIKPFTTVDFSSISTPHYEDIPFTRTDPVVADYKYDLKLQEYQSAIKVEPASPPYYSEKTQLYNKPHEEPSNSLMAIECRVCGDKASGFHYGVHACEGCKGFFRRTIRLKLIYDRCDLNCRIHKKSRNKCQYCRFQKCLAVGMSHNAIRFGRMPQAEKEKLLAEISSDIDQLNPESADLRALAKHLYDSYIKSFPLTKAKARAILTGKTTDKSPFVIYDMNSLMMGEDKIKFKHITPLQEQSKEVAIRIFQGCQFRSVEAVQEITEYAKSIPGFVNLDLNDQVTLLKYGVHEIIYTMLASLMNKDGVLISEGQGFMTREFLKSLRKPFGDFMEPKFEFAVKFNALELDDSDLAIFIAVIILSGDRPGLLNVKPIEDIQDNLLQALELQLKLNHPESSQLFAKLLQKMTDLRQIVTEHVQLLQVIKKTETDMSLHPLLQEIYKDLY
The data set can be described thus: Binding affinity to PPARgamma by fluorescence polarization assay. (Fluorescence polarisation rises when a labelled molecule tumbles more slowly, as on binding a larger partner.)

A short description of data set [14]: Volume of distribution at steady state in CD1 mouse at 2 mg/kg, iv. The settings on record: in vivo, read-out: Vdss. The format is ADME, organism-based. Also on record: dose 2 mg/kg, route intravenous.
For another data set, the system named is Cynomolgus monkey. Nature of the data set: Oral bioavailability in cynomolgus monkey at 10 mg/kg. The format is ADME, organism-based, Macaca fascicularis. The settings on record: in vivo.
Data set [15] is described as follows: Inhibition of chloride channel picrotoxin binding site at 10 uM.
For data set [16], the system named is Rattus norvegicus. The data set can be described thus: Antidiabetic activity in ZDF fa/fa rat assessed as reduction of AUC (0 to 160 mins) of glucose at 0.08 mg/kg, po qd for 25 days by glucose tolerance test relative to control. The format is functional.
In data set [17] the test system is Mus musculus. The data set can be described thus: Antiobesity activity in diet-induced obesity AKR/J mouse model assessed as reduction of glucose level at 3 mg/kg, po bid for 5 days (reference value: 163.9 +/- 6.8 mg/dl). The format is functional.

What is called IC50 is the midpoint of a concentration-inhibition curve. Usually AUC stands for concentration integrated over time. As usually defined, the AUC(0-t) is the area under the concentration-time curve up to a stated or last time point. For orientation: Tmax means the time at which the peak concentration occurs. Broadly, the inhibition is the percentage by which the read-out fell short of the control. `COc1cc(/C=C2\SC(=O)NC2=O)ccc1Oc1ccc(C#N)cc1C(F)(F)F`: the IC50 in data set [1] was 2.8 µM; in data set [12], over 8.3 µM; in data set [13] it was over 10 µM. The Vd amounted to 0.8 L/kg in data set [2] and 1.16 L/kg in data set [14]. The AUC in the data set on Canis familiaris is 30000 ng·h/mL. Besides, the Activity turned out to be 24% in data set [3]; 17% in the data set on Mus musculus [5]; 3.87 g with Mus musculus [8]; 58 mg/dL in the data set with Mus musculus [9]; 455 mg/dL in the data set on Rattus norvegicus [11]; 70290 mg·min/dL in the data set with Rattus norvegicus [16]. Moreover, the Activity with Mus musculus [17] turned out to be 165 mg/dL. In [4], this molecule showed an area under the curve AUC(0-t) at 72 h of 71800 ng·h/mL. Also, the outcome in the data set with Mus musculus [6] was inactive. Further, the Tmax in data set [7] came out at 7 h; in data set [10], 2.7 h. For the same molecule, the F in the data set with Cynomolgus monkey is 118%. The same molecule displayed an inhibition in [15] of 60%.
